# Calls of active or inactive are those of the source. The rule behind the calls is not given here.
# Columns and labels:
# PBMC = test: Inhibition of IDO1/IDO2 in IFNgamma/LPS-stimulated human PBMCs assessed as reduction in kynurenine formation at 0.0001 to 10 uM pretreated with compound for 15 mins followed by IFNgamma/LPS stimulation by LC-MS/MS analysis; assay type: tissue-based; conditions: dose 0.0001-10 µM
# [1] = Half life in monkey liver microsomes; assay type: ADME, Macaca mulatta, Microsome; conditions: rhesus monkey
# [2] = Protein binding in monkey plasma assessed as fraction unbound by equilibrium dialysis; assay type: ADME, cell-free, Macaca mulatta; conditions: rhesus monkey
# [3] = Protein binding in monkey plasma by equilibrium dialysis by equilibrium dialysis; assay type: ADME, cell-free, Macaca mulatta; conditions: rhesus monkey, read-out: PPB (converted)
# [4] = biological target: Voltage-gated inwardly rectifying potassium channel KCNH2 (Homo sapiens, UniProt Q12809); test: Inhibition of human ERG
# HCT-116 [5] = test: Antitumor activity against human HCT-116 cells xenografted in BALB/c nude mouse assessed as tumor growth inhibition at 100 to 300 mg/kg, ig bid for 21 days by vernier caliper method; assay type: functional, organism-based; conditions: dose 100-300 mg/kg, time 21.0 day
# Mus musculus [6] = test: In vivo inhibition of IDO1/IDO2 in BALB/c mouse xenografted with human HCT-116 cells assessed as increase in tryptophan level in serum by […]; assay type: functional, organism-based
# HCT-116 [7] = test: Antitumor immunity in BALB/c mouse xenografted with human HCT-116 cells assessed as increase in CD86 expression in CD11c+ cells by propidium iodide staining based flow cytometry analysis (reference value: 72 %); assay type: functional
# HCT-116 [8] = test: Antitumor immunity in BALB/c mouse xenografted with human HCT-116 cells assessed as late Treg cells in spleen by propidium iodide staining based flow cytometry analysis (reference value: 10.3 %); assay type: functional
# Mus musculus [9] = test: In vivo inhibition of IDO1/IDO2 in BALB/c mouse xenografted with human HCT-116 cells assessed as downregulation of Foxp3 expression in tumor by immunohistochemical assay; assay type: functional, organism-based
# Mus musculus [10] = test: In vivo inhibition of IDO1/IDO2 in BALB/c mouse xenografted with human HCT-116 cells assessed as downregulation of Foxp3 mRNA expression in tumor by quantitative RT-PCR analysis; assay type: functional, organism-based
# [11] = biological target: RAC-gamma serine/threonine-protein kinase (Homo sapiens) (UniProt Q9Y243); test: Inhibition of AKT3 (unknown origin) at 1 uM
# [12] = biological target: ALK tyrosine kinase receptor (Homo sapiens) (UniProt Q9UM73); test: Inhibition of ALK (unknown origin) at 1 uM
# [13] = biological target: Serine/threonine-protein kinase A-Raf (Homo sapiens) (UniProt P10398); test: Inhibition of ARAF (unknown origin) at 1 uM
# [14] = biological target: CDK4/Cyclin D3 (Homo sapiens) (UniProt P11802+P30281); test: Inhibition of CDK4/cyclin-D3 (unknown origin) at 1 uM; assay type: protein-complex assay
# [15] = biological target: Casein kinase I isoform alpha (Homo sapiens) (UniProt P48729); test: Inhibition of CK1a1 (unknown origin) at 1 uM
# [16] = biological target: Tyrosine-protein kinase CSK (Homo sapiens) (UniProt P41240); test: Inhibition of CSK (unknown origin) at 1 uM
# [17] = biological target: Dual specificity tyrosine-phosphorylation-regulated kinase 2 (Homo sapiens) (UniProt Q92630); test: Inhibition of DYRK2 (unknown origin) at 1 uM
# [18] = biological target: Receptor tyrosine-protein kinase erbB-2 (Homo sapiens) (UniProt P04626); test: Inhibition of ERBB2 (unknown origin) at 1 uM
# [19] = biological target: Mitogen-activated protein kinase 7 (Homo sapiens) (UniProt Q13164); test: Inhibition of ERK5 (unknown origin) at 1 uM
# [20] = biological target: Tyrosine-protein kinase Fer (Homo sapiens) (UniProt P16591); test: Inhibition of FER (unknown origin) at 1 uM
# [21] = biological target: Fibroblast growth factor receptor 1 (Homo sapiens) (UniProt P11362); test: Inhibition of FGFR1 (unknown origin) at 1 uM
# [22] = biological target: Tyrosine-protein kinase Fyn (Homo sapiens) (UniProt P06241); test: Inhibition of FYN (unknown origin) at 1 uM
# [23] = biological target: Mitogen-activated protein kinase kinase kinase kinase 1 (Homo sapiens) (UniProt Q92918); test: Inhibition of HPK1 (unknown origin) at 1 uM
# [24] = biological target: Kinase suppressor of Ras 1 (Homo sapiens) (UniProt Q8IVT5); test: Inhibition of KSR1 (unknown origin) at 1 uM
# [25] = biological target: Serine/threonine-protein kinase LATS1 (Homo sapiens) (UniProt O95835); test: Inhibition of LATS1 (unknown origin) at 1 uM
# [26] = biological target: Leucine-rich repeat serine/threonine-protein kinase 2 (Homo sapiens) (UniProt Q5S007); test: Inhibition of LRRK2 (unknown origin) at 1 uM
# [27] = biological target: Tyrosine-protein kinase Lyn (Homo sapiens) (UniProt P07948); test: Inhibition of LYN-B (unknown origin) at 1 uM
# [28] = biological target: MAP kinase-activated protein kinase 5 (Homo sapiens) (UniProt Q8IW41); test: Inhibition of MAPKAPK5 (unknown origin) at 1 uM
# [29] = biological target: Mitogen-activated protein kinase kinase kinase 2 (Homo sapiens) (UniProt Q9Y2U5); test: Inhibition of MEKK2 (unknown origin) at 1 uM
# [30] = biological target: Dual specificity mitogen-activated protein kinase kinase 6 (Homo sapiens) (UniProt P52564); test: Inhibition of MKK6 (unknown origin) at 1 uM
# [31] = biological target: Myosin light chain kinase family member 4 (Homo sapiens) (UniProt Q86YV6); test: Inhibition of MYLK4 (unknown origin) at 1 uM
# [32] = biological target: Myosin-IIIb (Homo sapiens) (UniProt Q8WXR4); test: Inhibition of MYO3B (unknown origin) at 1 uM
# [33] = biological target: Serine/threonine-protein kinase Nek1 (Homo sapiens) (UniProt Q96PY6); test: Inhibition of NEK1 (unknown origin) at 1 uM
# [34] = biological target: Dual serine/threonine and tyrosine protein kinase (Homo sapiens) (UniProt Q6XUX3); test: Inhibition of RIPK5 (unknown origin) at 1 uM
# [35] = biological target: Ribosomal protein S6 kinase alpha-2 (Homo sapiens) (UniProt Q15349); test: Inhibition of RSK3 (unknown origin) at 1 uM
# [36] = biological target: Serine/threonine-protein kinase Sgk3 (Homo sapiens) (UniProt Q96BR1); test: Inhibition of SGK3 (unknown origin) at 1 uM
# [37] = biological target: NUAK family SNF1-like kinase 2 (Homo sapiens) (UniProt Q9H093); test: Inhibition of SNARK (unknown origin) at 1 uM
# [38] = biological target: SRSF protein kinase 2 (Homo sapiens) (UniProt P78362); test: Inhibition of SRPK2 (unknown origin) at 1 uM
# [39] = biological target: Angiopoietin-1 receptor (Homo sapiens) (UniProt Q02763); test: Inhibition of TIE2 (unknown origin) at 1 uM
# [40] = biological target: Testis-specific serine/threonine-protein kinase 3 (Homo sapiens) (UniProt Q96PN8); test: Inhibition of TSSK3 (unknown origin) at 1 uM
# [41] = biological target: Mitogen-activated protein kinase kinase kinase 19 (Homo sapiens) (UniProt Q56UN5); test: Inhibition of YSK4 (unknown origin) at 1 uM
# Mitogen-activated protein kinase 7 (Homo sapiens), sequence (Q13164 2-816 limits assumed): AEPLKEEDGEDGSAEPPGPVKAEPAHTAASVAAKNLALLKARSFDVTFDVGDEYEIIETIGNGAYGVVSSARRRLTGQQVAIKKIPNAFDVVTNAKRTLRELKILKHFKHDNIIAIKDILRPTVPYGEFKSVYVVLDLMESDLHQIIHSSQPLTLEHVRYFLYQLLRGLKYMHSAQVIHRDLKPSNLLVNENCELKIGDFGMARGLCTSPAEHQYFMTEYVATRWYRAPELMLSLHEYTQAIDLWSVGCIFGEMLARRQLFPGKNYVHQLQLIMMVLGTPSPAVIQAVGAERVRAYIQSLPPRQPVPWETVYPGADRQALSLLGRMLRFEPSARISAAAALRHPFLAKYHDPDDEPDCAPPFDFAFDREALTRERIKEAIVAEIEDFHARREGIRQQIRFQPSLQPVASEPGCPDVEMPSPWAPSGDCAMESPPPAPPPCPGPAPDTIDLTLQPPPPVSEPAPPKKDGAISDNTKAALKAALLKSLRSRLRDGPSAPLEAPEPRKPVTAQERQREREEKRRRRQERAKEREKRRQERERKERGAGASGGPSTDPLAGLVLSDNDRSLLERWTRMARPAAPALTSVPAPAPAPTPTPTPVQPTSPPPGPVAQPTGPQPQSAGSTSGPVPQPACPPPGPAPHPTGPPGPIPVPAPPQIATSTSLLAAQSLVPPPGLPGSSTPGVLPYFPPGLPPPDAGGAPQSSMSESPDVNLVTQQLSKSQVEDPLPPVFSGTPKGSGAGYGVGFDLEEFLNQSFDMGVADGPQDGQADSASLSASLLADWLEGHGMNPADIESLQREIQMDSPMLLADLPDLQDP
# SRSF protein kinase 2 (Homo sapiens), sequence (P78362 whole entry, looked up): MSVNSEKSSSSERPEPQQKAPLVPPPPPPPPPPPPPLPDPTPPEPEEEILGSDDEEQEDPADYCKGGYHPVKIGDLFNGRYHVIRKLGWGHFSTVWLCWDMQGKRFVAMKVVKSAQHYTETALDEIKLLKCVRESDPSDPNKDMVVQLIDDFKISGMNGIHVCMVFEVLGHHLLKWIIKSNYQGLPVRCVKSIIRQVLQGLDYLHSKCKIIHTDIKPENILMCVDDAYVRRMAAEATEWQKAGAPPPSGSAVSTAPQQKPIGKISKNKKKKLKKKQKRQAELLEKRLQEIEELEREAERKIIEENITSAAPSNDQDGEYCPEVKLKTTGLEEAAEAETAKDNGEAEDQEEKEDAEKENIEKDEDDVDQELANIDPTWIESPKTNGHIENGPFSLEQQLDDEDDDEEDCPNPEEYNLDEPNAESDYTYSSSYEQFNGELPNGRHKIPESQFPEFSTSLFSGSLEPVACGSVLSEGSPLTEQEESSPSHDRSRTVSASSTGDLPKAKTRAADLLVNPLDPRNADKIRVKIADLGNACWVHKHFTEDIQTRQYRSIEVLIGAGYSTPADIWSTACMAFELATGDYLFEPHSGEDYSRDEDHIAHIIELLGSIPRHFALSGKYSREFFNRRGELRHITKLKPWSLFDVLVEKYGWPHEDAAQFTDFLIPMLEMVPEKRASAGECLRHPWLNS
# Voltage-gated inwardly rectifying potassium channel KCNH2, sequence (Q12809 whole entry): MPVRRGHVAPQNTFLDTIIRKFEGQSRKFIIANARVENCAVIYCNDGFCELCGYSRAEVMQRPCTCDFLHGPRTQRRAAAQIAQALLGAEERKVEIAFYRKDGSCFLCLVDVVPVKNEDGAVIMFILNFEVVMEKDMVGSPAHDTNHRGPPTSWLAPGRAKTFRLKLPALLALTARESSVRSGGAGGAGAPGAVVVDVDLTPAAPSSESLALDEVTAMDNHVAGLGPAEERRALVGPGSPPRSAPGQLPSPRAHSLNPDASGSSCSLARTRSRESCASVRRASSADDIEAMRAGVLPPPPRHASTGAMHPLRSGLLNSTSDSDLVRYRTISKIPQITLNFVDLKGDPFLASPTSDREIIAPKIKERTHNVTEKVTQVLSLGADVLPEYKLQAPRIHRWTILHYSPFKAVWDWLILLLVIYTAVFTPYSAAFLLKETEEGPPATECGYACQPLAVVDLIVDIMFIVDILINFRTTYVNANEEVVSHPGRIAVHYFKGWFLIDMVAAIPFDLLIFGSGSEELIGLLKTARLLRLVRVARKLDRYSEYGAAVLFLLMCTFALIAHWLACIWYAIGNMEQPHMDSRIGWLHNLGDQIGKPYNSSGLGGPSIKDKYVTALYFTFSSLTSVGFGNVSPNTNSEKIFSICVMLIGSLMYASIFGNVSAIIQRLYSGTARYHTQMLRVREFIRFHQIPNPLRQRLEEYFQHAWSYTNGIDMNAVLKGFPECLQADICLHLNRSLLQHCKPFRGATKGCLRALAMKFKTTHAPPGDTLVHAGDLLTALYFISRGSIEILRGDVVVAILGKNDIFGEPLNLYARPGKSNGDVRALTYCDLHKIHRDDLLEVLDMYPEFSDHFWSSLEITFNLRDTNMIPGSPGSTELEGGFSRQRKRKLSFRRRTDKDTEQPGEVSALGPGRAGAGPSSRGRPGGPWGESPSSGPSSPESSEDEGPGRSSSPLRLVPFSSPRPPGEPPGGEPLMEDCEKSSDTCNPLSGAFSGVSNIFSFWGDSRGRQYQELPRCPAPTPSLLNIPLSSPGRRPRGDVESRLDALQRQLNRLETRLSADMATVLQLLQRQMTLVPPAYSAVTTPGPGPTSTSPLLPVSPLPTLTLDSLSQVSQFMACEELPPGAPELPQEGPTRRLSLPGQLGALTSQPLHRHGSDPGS
# Ribosomal protein S6 kinase alpha-2 (Homo sapiens), sequence (Q15349 whole entry): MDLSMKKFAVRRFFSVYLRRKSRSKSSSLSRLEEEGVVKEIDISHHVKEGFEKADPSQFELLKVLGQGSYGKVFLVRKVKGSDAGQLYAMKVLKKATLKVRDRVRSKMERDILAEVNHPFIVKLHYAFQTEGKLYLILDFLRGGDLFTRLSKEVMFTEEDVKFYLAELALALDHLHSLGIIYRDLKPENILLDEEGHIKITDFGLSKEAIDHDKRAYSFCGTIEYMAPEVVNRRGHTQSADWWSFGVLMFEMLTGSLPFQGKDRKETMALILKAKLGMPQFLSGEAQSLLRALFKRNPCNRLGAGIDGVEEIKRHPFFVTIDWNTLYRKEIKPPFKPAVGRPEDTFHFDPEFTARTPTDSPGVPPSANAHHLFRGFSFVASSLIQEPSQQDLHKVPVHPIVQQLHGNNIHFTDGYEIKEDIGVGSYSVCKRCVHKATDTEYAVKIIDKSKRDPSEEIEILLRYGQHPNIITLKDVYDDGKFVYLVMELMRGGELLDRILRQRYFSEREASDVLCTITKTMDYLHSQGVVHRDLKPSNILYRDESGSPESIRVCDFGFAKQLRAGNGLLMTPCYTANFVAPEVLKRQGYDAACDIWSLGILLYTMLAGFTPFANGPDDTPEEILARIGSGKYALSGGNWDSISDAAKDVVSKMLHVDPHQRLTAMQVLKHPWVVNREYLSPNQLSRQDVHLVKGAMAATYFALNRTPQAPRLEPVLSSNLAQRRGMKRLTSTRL
# Mitogen-activated protein kinase kinase kinase 2 (Homo sapiens), sequence (Q9Y2U5 whole entry): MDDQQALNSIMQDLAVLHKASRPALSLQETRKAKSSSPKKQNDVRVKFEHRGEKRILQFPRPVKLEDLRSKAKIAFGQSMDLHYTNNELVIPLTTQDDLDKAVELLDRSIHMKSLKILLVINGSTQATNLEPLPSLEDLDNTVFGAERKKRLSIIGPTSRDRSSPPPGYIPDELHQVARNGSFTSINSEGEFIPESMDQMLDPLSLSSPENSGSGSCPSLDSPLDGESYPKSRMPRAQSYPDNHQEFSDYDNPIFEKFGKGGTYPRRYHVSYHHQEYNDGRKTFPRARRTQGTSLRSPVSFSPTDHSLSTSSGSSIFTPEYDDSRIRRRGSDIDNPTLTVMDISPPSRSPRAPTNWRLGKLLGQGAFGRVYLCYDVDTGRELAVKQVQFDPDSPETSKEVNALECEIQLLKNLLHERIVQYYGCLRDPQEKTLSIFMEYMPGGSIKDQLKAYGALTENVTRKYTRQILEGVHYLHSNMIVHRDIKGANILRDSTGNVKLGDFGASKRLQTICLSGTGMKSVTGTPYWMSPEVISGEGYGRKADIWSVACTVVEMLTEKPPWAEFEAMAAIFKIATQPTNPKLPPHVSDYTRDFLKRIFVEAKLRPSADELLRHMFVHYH
# Testis-specific serine/threonine-protein kinase 3 (Homo sapiens), sequence (Q96PN8 whole entry): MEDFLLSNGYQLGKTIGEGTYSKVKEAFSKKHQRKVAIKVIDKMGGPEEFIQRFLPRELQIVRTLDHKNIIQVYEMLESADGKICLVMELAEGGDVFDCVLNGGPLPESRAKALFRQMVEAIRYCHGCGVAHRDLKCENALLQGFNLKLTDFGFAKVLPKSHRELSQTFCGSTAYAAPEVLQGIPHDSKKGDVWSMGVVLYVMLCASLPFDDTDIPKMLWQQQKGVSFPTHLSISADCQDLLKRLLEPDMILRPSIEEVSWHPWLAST
# Tyrosine-protein kinase Lyn (Homo sapiens), sequence (P07948 2-512 limits assumed): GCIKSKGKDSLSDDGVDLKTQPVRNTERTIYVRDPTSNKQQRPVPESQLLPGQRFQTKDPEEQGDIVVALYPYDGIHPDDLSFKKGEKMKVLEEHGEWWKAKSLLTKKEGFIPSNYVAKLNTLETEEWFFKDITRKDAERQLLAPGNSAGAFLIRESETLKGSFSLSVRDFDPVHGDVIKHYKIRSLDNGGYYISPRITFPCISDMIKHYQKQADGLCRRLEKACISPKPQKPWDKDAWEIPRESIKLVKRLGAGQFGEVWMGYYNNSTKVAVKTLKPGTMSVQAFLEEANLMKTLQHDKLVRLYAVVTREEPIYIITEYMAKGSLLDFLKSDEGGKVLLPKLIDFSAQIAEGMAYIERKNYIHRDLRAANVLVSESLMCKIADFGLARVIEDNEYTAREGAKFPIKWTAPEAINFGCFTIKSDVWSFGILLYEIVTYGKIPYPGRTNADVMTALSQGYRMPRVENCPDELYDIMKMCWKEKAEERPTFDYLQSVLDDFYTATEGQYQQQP
compound,measurement,setting,value
OCCOCc1cn(CCNc2nonc2/C(=N/O)Nc2ccc(F)c(Br)c2)nn1,inhibition,PBMC,Active
same,half-life,[1],38.6 min
same,fraction unbound,[2],0.0763
same,fraction unbound,[3],0.0763
same,IC50,[4],> 30 µM
same,Activity,HCT-116 [5],inactive
same,inhibition,Mus musculus [6],Active
same,Activity,HCT-116 [7],62.6%
same,Activity,HCT-116 [8],7.24%
same,inhibition,Mus musculus [9],Active
same,inhibition,Mus musculus [10],Active
same,inhibition,[11],inactive
same,inhibition,[12],inactive
same,inhibition,[13],inactive
same,inhibition,[14],inactive
same,inhibition,[15],inactive
same,inhibition,[16],inactive
same,inhibition,[17],inactive
same,inhibition,[18],inactive
same,inhibition,[19],inactive
same,inhibition,[20],inactive
same,inhibition,[21],inactive
same,inhibition,[22],inactive
same,inhibition,[23],inactive
same,inhibition,[24],inactive
same,inhibition,[25],inactive
same,inhibition,[26],inactive
same,inhibition,[27],inactive
same,inhibition,[28],inactive
same,inhibition,[29],inactive
same,inhibition,[30],inactive
same,inhibition,[31],inactive
same,inhibition,[32],inactive
same,inhibition,[33],inactive
same,inhibition,[34],inactive
same,inhibition,[35],inactive
same,inhibition,[36],inactive
same,inhibition,[37],inactive
same,inhibition,[38],inactive
same,inhibition,[39],inactive
same,inhibition,[40],inactive
same,inhibition,[41],inactive

# From ChEMBL document CHEMBL5055685, “Discovery of the First Potent IDO1/IDO2 Dual Inhibitors: A Promising Strategy for Cancer Immunotherapy” (J Med Chem, 2021)
